# Read-outs that look alike come from different tables or passages of the source.
# Assays:
# [1] = system: rats; test: Anxiolytic activity, social interaction test (method of File); assay type: in vivo
# Source text: 2) Anxiolytic activity. Social interaction test.
# This consists in placing a pair of rats in an unknown and strongly lit environment.
# [2] = Acute toxicity; set-up: species or system mice; settings: mouse, in vivo
# Experimental: The acute toxicity is determined by different vias in mice.
# [3] = Anxiolytic activity, two-compartment box (method of Crawley); assay type: in vivo
# Source text: 1) Anxiolytic activity. Two-compartment box.
# The method used is that of Crawley, J.N.; Pharmacol. Biochem. Behav., 15, 695-699 (1981). This consists of a two-compartment box with different lighting, counting the time of stay and number of entries into the light and dark compartments, the number of lifting movements and the number of lines crossed in each of the two compartments, before and after treatment with the products under study.
# [4] = system: mouse; test: Antidepressive activity, desperate behaviour induced by enforced swimming, Porsolt test; assay type: in vivo; settings: mice
# Experimental: 3) Antidepressive activity. Desperate behaviour induced in mouse by enforced swimming. Porsolt test.
# This consists in subjecting the mice to a swimming test by placing them inside transparent cylinders of set dimensions, with water at a temperature of 20-22°C. After a prior detection test, the time the animal takes to adopt an immobile posture is determined, recording the duration of immobility. The average immobility time of the treated groups is compared with that of the control group.
# [5] = system: rats; test: Effect on learning and memory, passive avoidance test; assay type: in vivo
# Source text: 4) Effect on learning and memory. Passive avoidance test on rats.
# Use is made of the method of Chugh and colls., Eur. J. Pharmacol., 203, 121-123 (1991). This consists in placing the rats in a two-compartment (light and dark) box separated by a door which opens and closes as the experimenter wishes; the floor of both cages is constructed using a metal grid electrifiable as desired in terms of current and duration. The animal is conditioned to avoid the dark zone, and the time of latency in the exposures following the one in which the animals receive the electric shock of 0.2 mA and duration of 3 seconds is determined.
# [6] = ip, mice, i.p., read-out: APPROXIMATE DL₅₀
# [7] = 0,01 mg/kg i.p., Excipient 158 ± 15
structure (smiles),measurement,setting,value
O=C1CC2(CCCC2)CC(=O)N1CCCCN1CCN(c2ncccn2)CC1 [BUSPIRONA],SOCIAL INTERACTION TIME (sec ± E.S.),"[1]; 0,25 mg/kg i.p., Excipient 158 ± 15",287 ± 19 s
same,SOCIAL INTERACTION TIME (sec ± E.S.),"[1]; 1 mg/kg i.p., Excipient 158 ± 15",275 ± 14 s
"O=Cc1c(N2CCN(Cc3ccc4c(c3)OCO4)CC2)[nH]c2ccccc12 [COMPOUND I, 3-[2-(1-(4'-piperonylpiperazinyl))indolyl]-carboxaldehyde]",LD50,[2]; [6],> 500 mg/kg
same,LD50,"[2]; po, mice, v.o., read-out: APPROXIMATE DL₅₀",> 500 mg/kg
same,% TIME IN LIGHT COMPARTMENT (X ± E.S.),"[3]; 2 µg/kg i.p., N 11, same group PRE-EXPOSURE 10,8 ± 3,6","14,6 ± 7,2%"
same,% TIME IN LIGHT COMPARTMENT (X ± E.S.),"[3]; 4 µg/kg v.o., N 10, same group PRE-EXPOSURE 14,5 ± 4,0","20,0 ± 5,5%"
same,% TIME IN LIGHT COMPARTMENT (X ± E.S.),"[3]; 8 µg/kg v.o., N 11, same group PRE-EXPOSURE 24,9 ± 6,8","28,6 ± 8,0%"
same,% TIME IN LIGHT COMPARTMENT (X ± E.S.),"[3]; 20 µg/kg i.p., N 11, same group PRE-EXPOSURE 10,7 ± 3,5","12,7 ± 6,5%"
same,% TIME IN LIGHT COMPARTMENT (X ± E.S.),"[3]; 50 µg/kg i.p., N 20, same group PRE-EXPOSURE 22,9 ± 3,1","15,4 ± 4,4%"
same,% TIME IN LIGHT COMPARTMENT (X ± E.S.),"[3]; 100 µg/kg i.p., N 20, same group PRE-EXPOSURE 15,0 ± 2,0","8,6 ± 3,2%"
same,IMMOBILITY TIME (sec ± E.S.),"[4]; 0,1 mg/kg i.p., Excipient 89,70 ± 21,7","49,4 ± 17,8 sec"
same,IMMOBILITY TIME (sec ± E.S.),"[4]; 0,5 mg/kg i.p., Excipient 89,70 ± 21,7","31,60 ± 10,2 sec"
same,IMMOBILITY TIME (sec ± E.S.),"[4]; 1 mg/kg i.p., Excipient 132,53 ± 8,70","59,80 ± 11,00 sec"
same,IMMOBILITY TIME (sec ± E.S.),"[4]; 10 mg/kg i.p., Excipient 132,53 ± 8,70","136,60 ± 11,26 sec"
same,"2nd LATENCY (10'), average ± E.S.","[5]; 1 mg/kg i.p., N 7, Excipient 5,7 ± 1,5","3,3 ± 1,4"
same,"2nd LATENCY (10'), median","[5]; 1 mg/kg i.p., N 7, Excipient 6",4
same,"1st LATENCY, average ± E.S.","[5]; 1 mg/kg i.p., N 7, Excipient 7,1 ± 1,6","2,7 ± 0,7"
same,"1st LATENCY, median","[5]; 1 mg/kg i.p., N 7, Excipient 9",3
same,"3rd LATENCY -(24 h), average ± E.S.","[5]; 1 mg/kg i.p., N 7, Excipient 10,7 ± 4,8","23,6 ± 9,0"
same,"3rd LATENCY -(24 h), median","[5]; 1 mg/kg i.p., N 7, Excipient 21",42
same,SOCIAL INTERACTION TIME (sec ± E.S.),"[1]; 0,5 mg/kg i.p., Excipient 158 ± 15",235 ± 12 s
same,SOCIAL INTERACTION TIME (sec ± E.S.),"[1]; 2 mg/kg v.o., Excipient i.p 158 ± 15",262 ± 17 s
CN1C(=O)CN=C(c2ccccc2)c2cc(Cl)ccc21 [DIAZEPAM],SOCIAL I[…] (sec ± E.S.),"[1]; 2 mg/kg i.p., Excipient 158 ± 15",257 ± 22 s
CN1C2CCCC1CC(NC(=O)c1nn(C)c3ccccc13)C2 (stereo not shown) [GRANISETRON],LD50,[2]; [6],89 mg/kg
same,"2nd LATENCY (10'), average ± E.S.","[5]; 0,1 mg/kg i.p., N 6, Excipient 5,7 ± 1,5","8,5 ± 1,8"
same,"2nd LATENCY (10'), median","[5]; 0,1 mg/kg i.p., N 6, Excipient 6",11
same,"1st LATENCY, average ± E.S.","[5]; 0,1 mg/kg i.p., N 6, Excipient 7,1 ± 1,6","6,3 ± 1,1"
same,"1st LATENCY, median","[5]; 0,1 mg/kg i.p., N 6, Excipient 9",8
same,"3rd LATENCY -(24 h), average ± E.S.","[5]; 0,1 mg/kg i.p., N 6, Excipient 10,7 ± 4,8","19,0 ± 6,5"
same,"3rd LATENCY -(24 h), median","[5]; 0,1 mg/kg i.p., N 6, Excipient 21",21
Cc1nccn1CC1CCc2c(c3ccccc3n2C)C1=O (stereo not shown) [ONDANSETRON],LD50,[2]; ip,7.5 mg/kg
same,% TIME IN LIGHT COMPARTMENT (X ± E.S.),"[3]; 2µg/kg i.p., N 10, same group PRE-EXPOSURE 16,6 ± 3,3","12,3 ± 2,7%"
same,% TIME IN LIGHT COMPARTMENT (X ± E.S.),"[3]; 4 µg/kg v.o., N 10, same group PRE-EXPOSURE 21,1 ± 8,0","18,7 ± 5,1%"
same,SOCIAL INTERACTION TIME (sec ± E.S.),[1]; [7],247 ± 22 s
same,SOCIAL INTERACTION TIME (sec ± E.S.),"[1]; 0,05 mg/kg i.p., Excipient 158 ± 15",219 ± 18 s
CN1[C@@H]2CC[C@H]1C[C@@H](OC(=O)c1c[nH]c3ccccc13)C2 [TROPISETRON],% TIME IN LIGHT COMPARTMENT (X ± E.S.),"[3]; 10 µg/kg i.p., N 20, same group PRE-EXPOSURE 12,4 ± 3,0","12,3 ± 3,0%"
same,SOCIAL INTERACTION TIME (sec ± E.S.),[1]; [7],253 ± 10 s
same,SOCIAL INTERACTION TIME (sec ± E.S.),"[1]; 0,1 mg/kg i.p., Excipient 158 ± 15",231 ± 26 s
COc1cc(N)c(Cl)cc1C(=O)NC1CN2CCC1CC2 (stereo not shown) [ZACOPRIDE],LD50,[2]; [6],135 mg/kg
CN(C)CCCN1c2ccccc2CCc2ccccc21 [[…]],[…] (sec ± E.S.),"[4]; 30 mg/kg i.p., Excipient 132,53 ± 8,70","71,72 ± 9,82 sec"
